According to patent publication US20240000872A1, “NOVEL BACTERIOPHAGE THAT LYSES ACINETOBACTER GENUS BACTERIA HAVING RESISTANCE TO ANTIBIOTICS” (priority 2020, published 2024):

System: Acinetobacter baumannii strains
Experiment: Antibiotic susceptibility test (CLSI disk diffusion test method, read per CLSI 2016)
Format: cell-based
Description: (§1) Strain identification was performed using a kit such as AT 32 GN system (bioMérieux, Marcy l'Etoile, France). […] In Table 2 below, S, I, and R are the results obtained by evaluating susceptibility to the antibacterial agents, in which ‘S’ means susceptible, ‘I’ means intermediate, and ‘R’ means resistant.
as §1, with “as ATB” for “as AT”, “system (bioMédrieux,” for “system (bioMérieux,”, “Table 6” for “Table 2”
as §1, with “as ATB” for “as AT”, “Table 10” for “Table 2”, “susceptible, T” for “susceptible, ‘I’”

CC(C)(O/N=C(\C(=O)N[C@@H]1C(=O)N2C(C(=O)[O-])=C(C[n+]3ccccc3)CS[C@H]12)c1csc(N)n1)C(=O)O [Ceftazidime, ceftazidime]
S: antibiotic susceptibility S/I/R (host strain YMC17/02/B4864) | susceptibility category (S/I/R) (host strain YMC17/02/B4864)
R: antibiotic susceptibility class (host strain YMC14/01/C29) | antibiotic susceptibility class (host strain YMC14/01/IP122) | antibiotic susceptibility class (host strain YMC14/01/L8) | antibiotic susceptibility class (host strain YMC14/01/P31) | antibiotic susceptibility class (host strain YMC14/01/P117) | antibiotic susceptibility class (host strain YMC14/01/P224) | antibiotic susceptibility class (host strain YMC14/01/P727) | antibiotic susceptibility class (host strain YMC14/01/P728) | antibiotic susceptibility class (host strain YMC14/01/R130) | antibiotic susceptibility class (host strain YMC14/01/R160) | antibiotic susceptibility class (host strain YMC14/01/R198) | antibiotic susceptibility class (host strain YMC14/01/R257) | antibiotic susceptibility class (host strain YMC14/01/R270) | antibiotic susceptibility class (host strain YMC14/01/R324) | antibiotic susceptibility class (host strain YMC14/01/R443) | antibiotic susceptibility class (host strain YMC14/01/R451) | antibiotic susceptibility class (host strain YMC14/01/R560) | antibiotic susceptibility class (host strain YMC14/01/R671) | antibiotic susceptibility class (host strain YMC14/01/R732) | antibiotic susceptibility class (host strain YMC14/01/R767) | antibiotic susceptibility class (host strain YMC14/01/R904) | antibiotic susceptibility class (host strain YMC14/01/R905) | antibiotic susceptibility class (host strain YMC14/01/R921) | antibiotic susceptibility class (host strain YMC14/01/R941) | antibiotic susceptibility class (host strain YMC14/01/R958) | antibiotic susceptibility class (host strain YMC14/01/R1006) | antibiotic susceptibility class (host strain YMC14/01/R1199) | antibiotic susceptibility class (host strain YMC14/01/R1659) | antibiotic susceptibility class (host strain YMC14/01/R1722) | antibiotic susceptibility class (host strain YMC14/01/R1752) | antibiotic susceptibility class (host strain YMC14/01/R2429) | antibiotic susceptibility class (host strain YMC14/01/R2572) | antibiotic susceptibility class (host strain YMC14/01/R2855) | antibiotic susceptibility class (host strain YMC14/01/R2945) | antibiotic susceptibility class (host strain YMC14/01/R3007) | antibiotic susceptibility class (host strain YMC14/01/R3129) | antibiotic susceptibility class (host strain YMC14/01/R3317) | antibiotic susceptibility class (host strain YMC14/01/R3474) | antibiotic susceptibility class (host strain YMC14/01/R3574) | antibiotic susceptibility class (host strain YMC14/01/U313) | antibiotic susceptibility class (host strain YMC14/01/U318) | antibiotic susceptibility class (host strain YMC14/02/L18) | antibiotic susceptibility class (host strain YMC14/02/P47) | antibiotic susceptibility class (host strain YMC14/02/R1860) | antibiotic susceptibility class (host strain YMC14/02/R2417) | antibiotic susceptibility class (host strain YMC14/02/R2599) | antibiotic susceptibility class (host strain YMC14/02/R2668) | antibiotic susceptibility class (host strain YMC14/02/R2758) | antibiotic susceptibility class (host strain YMC14/02/R2781) | antibiotic susceptibility class (host strain YMC14/02/R3106) | antibiotic susceptibility class (host strain YMC14/02/R3419) | antibiotic susceptibility class (host strain YMC14/02/U1607) | antibiotic susceptibility class (host strain YMC14/03/L9) | antibiotic susceptibility class (host strain YMC14/03/P471) | antibiotic susceptibility class (host strain YMC14/03/R122) | antibiotic susceptibility class (host strain YMC14/03/R217) | antibiotic susceptibility class (host strain YMC14/03/R380) | antibiotic susceptibility class (host strain YMC14/03/R618) | antibiotic susceptibility class (host strain YMC14/03/R2144) | antibiotic susceptibility class (host strain YMC14/03/U4616) | antibiotic susceptibility class (host strain YMC14/04/R1078) | antibiotic susceptibility class (host strain YMC14/04/R1080) | antibiotic susceptibility S/I/R (host strain YMC14/06/R2359) | susceptibility category (S/I/R) (host strain YMC14/06/R2359) | antibiotic susceptibility S/I/R (host strain YMC14/08/R1169) | susceptibility category (S/I/R) (host strain YMC14/08/R1169) | antibiotic susceptibility S/I/R (host strain YMC14/08/T90) | susceptibility category (S/I/R) (host strain YMC14/08/T90) | antibiotic susceptibility S/I/R (host strain YMC15/02/R436) | susceptibility category (S/I/R) (host strain YMC15/02/R436) | antibiotic susceptibility S/I/R (host strain YMC15/02/T28) | susceptibility category (S/I/R) (host strain YMC15/02/T28) | antibiotic susceptibility S/I/R (host strain YMC15/03/R1604) | susceptibility category (S/I/R) (host strain YMC15/03/R1604) | antibiotic susceptibility S/I/R (host strain YMC15/09/R1869) | susceptibility category (S/I/R) (host strain YMC15/09/R1869) | antibiotic susceptibility S/I/R (host strain YMC16/01/P11) | susceptibility category (S/I/R) (host strain YMC16/01/P11) | antibiotic susceptibility S/I/R (host strain YMC16/01/R123) | susceptibility category (S/I/R) (host strain YMC16/01/R123) | antibiotic susceptibility S/I/R (host strain YMC16/01/R198) | susceptibility category (S/I/R) (host strain YMC16/01/R198) | antibiotic susceptibility S/I/R (host strain YMC16/01/R353) | susceptibility category (S/I/R) (host strain YMC16/01/R353) | antibiotic susceptibility S/I/R (host strain YMC16/01/R380) | susceptibility category (S/I/R) (host strain YMC16/01/R380) | antibiotic susceptibility S/I/R (host strain YMC16/01/R397) | susceptibility category (S/I/R) (host strain YMC16/01/R397) | antibiotic susceptibility S/I/R (host strain YMC16/01/R405) | susceptibility category (S/I/R) (host strain YMC16/01/R405) | antibiotic susceptibility S/I/R (host strain YMC16/03/R4461) | susceptibility category (S/I/R) (host strain YMC16/03/R4461) | antibiotic susceptibility S/I/R (host strain YMC16/05/R2210) | susceptibility category (S/I/R) (host strain YMC16/05/R2210) | antibiotic susceptibility S/I/R (host strain YMC16/07/R2512) | susceptibility category (S/I/R) (host strain YMC16/07/R2512) | antibiotic susceptibility S/I/R (host strain YMC16/09/R2471) | susceptibility category (S/I/R) (host strain YMC16/09/R2471) | antibiotic susceptibility S/I/R (host strain YMC16/10/R2537) | susceptibility category (S/I/R) (host strain YMC16/10/R2537) | antibiotic susceptibility S/I/R (host strain YMC16/12/B11422) | susceptibility category (S/I/R) (host strain YMC16/12/B11422) | antibiotic susceptibility S/I/R (host strain YMC16/12/B11449) | susceptibility category (S/I/R) (host strain YMC16/12/B11449) | antibiotic susceptibility S/I/R (host strain YMC16/12/B13325) | susceptibility category (S/I/R) (host strain YMC16/12/B13325) | antibiotic susceptibility S/I/R (host strain YMC16/12/P503) | susceptibility category (S/I/R) (host strain YMC16/12/P503) | antibiotic susceptibility S/I/R (host strain YMC16/12/R4637) | susceptibility category (S/I/R) (host strain YMC16/12/R4637) | antibiotic susceptibility S/I/R (host strain YMC17/01/B8053) | susceptibility category (S/I/R) (host strain YMC17/01/B8053) | antibiotic susceptibility S/I/R (host strain YMC17/01/B10087) | susceptibility category (S/I/R) (host strain YMC17/01/B10087) | antibiotic susceptibility S/I/R (host strain YMC17/01/B12075) | susceptibility category (S/I/R) (host strain YMC17/01/B12075) | antibiotic susceptibility S/I/R (host strain YMC17/01/B13454) | susceptibility category (S/I/R) (host strain YMC17/01/B13454) | antibiotic susceptibility S/I/R (host strain YMC17/01/P518) | susceptibility category (S/I/R) (host strain YMC17/01/P518) | antibiotic susceptibility S/I/R (host strain YMC17/01/R2812) | susceptibility category (S/I/R) (host strain YMC17/01/R2812) | antibiotic susceptibility S/I/R (host strain YMC17/02/B14) | susceptibility category (S/I/R) (host strain YMC17/02/B14) | antibiotic susceptibility S/I/R (host strain YMC17/02/B87) | susceptibility category (S/I/R) (host strain YMC17/02/B87) | antibiotic susceptibility S/I/R (host strain YMC17/02/B721) | susceptibility category (S/I/R) (host strain YMC17/02/B721) | antibiotic susceptibility S/I/R (host strain YMC17/02/B4039) | susceptibility category (S/I/R) (host strain YMC17/02/B4039) | antibiotic susceptibility S/I/R (host strain YMC17/02/B4520) | susceptibility category (S/I/R) (host strain YMC17/02/B4520) | antibiotic susceptibility S/I/R (host strain YMC17/02/B8414) | susceptibility category (S/I/R) (host strain YMC17/02/B8414) | antibiotic susceptibility S/I/R (host strain YMC17/02/P523) | susceptibility category (S/I/R) (host strain YMC17/02/P523) | antibiotic susceptibility S/I/R (host strain YMC17/02/R541) | susceptibility category (S/I/R) (host strain YMC17/02/R541) | antibiotic susceptibility S/I/R (host strain YMC17/02/R2392) | susceptibility category (S/I/R) (host strain YMC17/02/R2392) | antibiotic susceptibility S/I/R (host strain YMC17/03/B4730) | susceptibility category (S/I/R) (host strain YMC17/03/B4730) | antibiotic susceptibility S/I/R (host strain YMC17/03/B5000) | susceptibility category (S/I/R) (host strain YMC17/03/B5000) | antibiotic susceptibility S/I/R (host strain YMC17/03/P971) | susceptibility category (S/I/R) (host strain YMC17/03/P971) | antibiotic susceptibility S/I/R (host strain YMC17/03/R348) | susceptibility category (S/I/R) (host strain YMC17/03/R348) | antibiotic susceptibility S/I/R (host strain YMC17/03/R585) | susceptibility category (S/I/R) (host strain YMC17/03/R585) | antibiotic susceptibility S/I/R (host strain YMC17/03/R1888) | susceptibility category (S/I/R) (host strain YMC17/03/R1888) | antibiotic susceptibility S/I/R (host strain YMC17/03/R3279) | susceptibility category (S/I/R) (host strain YMC17/03/R3279) | antibiotic susceptibility S/I/R (host strain YMC17/03/R4077) | susceptibility category (S/I/R) (host strain YMC17/03/R4077) | antibiotic susceptibility S/I/R (host strain YMC17/03/R4607) | susceptibility category (S/I/R) (host strain YMC17/03/R4607) | antibiotic susceptibility S/I/R (host strain YMC17/04/R488) | susceptibility category (S/I/R) (host strain YMC17/04/R488) | antibiotic susceptibility S/I/R (host strain YMC17/04/R640) | susceptibility category (S/I/R) (host strain YMC17/04/R640) | antibiotic susceptibility S/I/R (host strain YMC/17/05/R1095) | susceptibility category (S/I/R) (host strain YMC/17/05/R1095)
I: antibiotic susceptibility class (host strain YMC14/01/R617)
